Results reported in patent publication US6610289B2, “Mutated herpes simplex virus type 1 thymidine kinases and uses thereof” (The Board of Trustees of the University of Arkansas, priority 1998, dated 2003).

Assays:
[1] = test system: NIH3T3 cells; assay: MTT cell viability, sensitivity to GCV killing, NIH3T3 cell lines expressing HSV-1 TKs; format: cell-based, murine; conditions: NIH3T3, GCV 0-5 μM, 4 days, FIG. 3A
Experimental: Cells were plated in triplicate and exposed to 0, 0.05, 0.5 or 5 μM GCV for four days. Cell viabilities were determined using MTT dye. […] FIG. 3A: NIH3T3 cell lines, FIG. 3B: HCT-116 cell lines; parental cells (noTK, dark bands); Asp125TK (Asp-#, brick band); Glu-125TK (Glu-#, cross-hatch bands); Asn-125TK (Asn-#, gray bands); wild-type HSV-1 TK (WT-#, striped bands).
A Moloney murine leukemia virus derived plasmid for the expression of HSV-TK, termed pLENTK, has been previously constructed (24). A unique BspEI-MluI restriction fragment within the HSV-TK sequence of pLENTK contains the Gln-125 mutation site. This fragment was removed from wild-type plasmid and replaced with the analogous fragments encoding each mutant. […] Along with wild-type HSV-1 TK plasmid, each mutant-TK plasmid was transfected individually into the murine fibroblast cell line, NIH 3T3, and the human colon tumor cell line, HCT-116, using lipofectin reagent (GIBCO/BRL) (2 μg plasmid, 14 μl lipid per 1×10^6 cells). Cells were maintained in RPMI 1640 media and selected with G418 (200 μg/ml for 2 weeks) as previously described (24). At least eight individual G418 resistant cell clones were picked and grown up for further characterization. Each clone was screened initially for growth inhibition by 25 μM GCV. Those clones that were sensitive were further analyzed for HSV-TK protein expression by Western blot analysis with a polyclonal, rabbit anti-HSV-TK antibody (a gift from Dr. Margaret Black). […] After 4 days, MTT ([…]) was added for 1.5 hours, followed by DMSO solubilization of the cells and absorbance reading at 540 nm (25).
cDNA for each mutant was incorporated into a Moloney murine leukemia virus plasmid (24). […] Following drug selection in G418, individual cell clones were evaluated for sensitivity to GCV and relative levels of HSV-1 TK expression. Using an HSV-1 TK antibody and extracts normalized by protein and cell number, the relative expression levels of HSV-1 TK in each cell clone were determined.

[2] = test system: HCT-116 cells; assay: Cell cycle analysis of GCV treated cells (propidium iodide flow cytometry); format: cell-based, human; conditions: +GCV 25 μM, 24 hours, HCT-116 expressing the TK
Experimental: Parental HCT-116 cells and each HSV-1 TK expressing cell line were grown to 60% confluency in 25 cm^2 flasks and treated for 24 hours minus (−GCV, panels A, C, E and G) or plus (+GCV, panels B, D, F and H) 25 μM GCV. Cells were fixed in 70% ethanol overnight, and later incubated with RNAase (0.1%) and propidium iodide (1 mg/ml) for […] on ice. Flow cytometry measuring propidium iodide fluorescence was done with a Becton-Dickinson FACScalibur instrument using MODFIT computer software. FIGS. 6A and 6B: HCT-116 cells; FIGS. 6C and 6D: wild-type HSV-1 TK cells; FIGS. 6E and 6F: Asn-125TK cells, FIGS. 6G and 6H: Glu-125TK cells.
Parental HCT-116 cells and each HSV-1 TK expressing cell line were grown to 60% confluency in 25 cm^2 flasks and treated for 24 hours plus or minus 25 μM GCV. Following drug incubation, cells were removed by trypsin and total cell numbers determined. Following two phosphate buffered saline rinsing and centrifugation cycles, the cell pellets were resuspended in 1 ml of 70% ethanol and stored at 4° C. until further analysis. Just prior to cell cycle analysis, the ethanol was removed and cell pellets were resuspended in phosphate-buffered saline plus RNAase (0.1%) and propidium iodide (1 mg/ml) for 30 minutes on ice. Flow cytometry measuring propidium iodide fluorescence was done with a Becton-Dickinson FACScalibur instrument. Cell cycle distribution of the cells were determined using MODFIT computer software
GCV has also been previously reported to induce S and G2-M phase cell cycle arrest in HSV-1 TK expressing glioma and melanoma cell lines (36-38). Therefore, the effect of 24 hr GCV treatment on the cell cycling of parental and the three HSV-1 TK-expressing cell lines was examined by flow cytometry of propidium iodide stained cells. As shown in FIGS. 6A and 6B and Table 5, GCV treatment of HCT-116 parental, non-HSV-1 TK-expressing cells had little effect on the percentage of cells in each phase of the cell cycle as compared with untreated cells. In the wild-type and Asn-125TK-expressing cell lines, GCV treatment (FIGS. 6D and 6F) led to an increase in the proportion of cells in the S-phase, and undetectable percentages in G2-M phase when compared to untreated cultures (FIGS. 6C and 6E). For the Glu-125TK-expressing cells, over 50% of the GCV treated cells were in S-phase and less than 3% were in G2-M (FIG. 6H).

Asn-125 was tested. Which “Dose dependent cell killing by GCV (cell viability, MTT)” value [1] did it give?
Its value is “proportionally more cell killing”.

What about the “Cell cycle phase G0/G1” value [2] of the same substance?
The value was 70.0%.

What about the “Cell cycle phase S” value [2] of the same substance?
The value was 30.0%.

“Gln-125 (WT): wild-type herpes simplex virus type 1 thymidine kinase with glutamine at position 125, parent enzyme [reference compound]” was tested. Which “Dose dependent cell killing by GCV (cell viability, MTT)” value [1] did it give?
Its value is “proportionally more cell killing”.

And the “Cell cycle phase G0/G1” value [2]?
The value was 60.1%.

What about the “Cell cycle phase G2/M” value [2] of the same substance?
The value was “undetectable”.

What about the “Cell cycle phase S” value [2] of the same substance?
Its value is 39.9%.

And the “Cell cycle phase G2/M” value ([2]; listed as WTGln-125TK)?
Its value is 0%.

Which results are given for Glu-125?
Dose dependent cell killing by GCV (cell viability, MTT) [1]: minimal cell killing; Cell cycle phase G0/G1 [2]: 39.0%
